Laboratory results published in patent US9926354B2, “Amyloid precursor protein (APP) based Ã#-secretase inhibitor peptides, and methods of use” (UNIVERSITY OF SOUTH FLORIDA, priority 2014, dated 2018).
Values joined by “and” are separate entries in the source; they are usually repeats but may differ in a detail not shown here. Equal entries are not always repeated.

What was measured:
[1] = system: CHO cells over-expressing human Swedish mutant APP (CHO/APPswe); assay: Aβ and sAPPα production in cultured media of CHO/APPswe cells by ELISA; format: cell-based, Chinese hamster; settings: 20 μg/mL, 24 hours
Experimental: (§1) Cell Culture—Chinese hamster ovary (CHO) cells engineered to express wild-type human APP (CHO/APPwt cells) or Swedish mutant human APP (CHO/APPswe cells) were kindly provided by Dr. Stefanie Hahn and Dr. Sascha Weggen (University of Heinrich Heine, Dusseldorf, Germany). As described previously (Obregon et al., 2012), these cells were cultured in Dulbecco's modified Eagle's medium (DMEM) with 10% fetal bovine serum (FBS), 1 mM sodium pyruvate, and 100 units/mL of penicillin and streptomycin.
(§2) To confirm the binding of APPsweBBP with BACE1, CHO/APPwt cells were plated in 8-well chambers (5×10^5/well), incubated with TAT-APPsweBBP-biotin or APPsweBBP-biotin at 20 μM for 30 minutes, fixed with 4% paraformaldehyde for 20 minutes, washed and permeabilized with 0.5% Triton X-100. Following application of blocking buffer, these cells were stained with mouse anti-BACE1 and rabbit anti-biotin antibodies overnight at 4° C. for immunocytochemistry analysis. In order to determine the inhibitory effects of TAT-APPsweBBP on BACE1-mediated APP β-cleavage and subsequent Aβ production, both CHO/APPwt and CHO/APPswe cells were plated in 24 well-plates (3×10^5/well) and treated with TAT-APPsweBBP at 0-20 μM for 24 hours. The cultured media were collected for Aβ analysis by enzyme-linked immunosorbent assay (ELISA) and sAPPα analysis by ELISA and Western blot (WB). Cell lysates were also prepared for analysis of APP amyloidogenic processing by WB.
(§3) ELISA—Mouse brains were homogenized in ice-cold lysis buffer for 30 seconds using a Minilys tissue homogenizer (Bertin Technologies, Montigny-le-Bretonneux, France) set at high speed, allowed to stand for 15 minutes at 4° C., and centrifuged at 15,000 rpm for 30 minutes. Soluble Aβ1-40/42 species and sAPPα were directly detected in cultured cell media or brain homogenates using the Aβ1-40/42 (Invitrogen) and sAPPα ELISA kits (IBL-America, Minneapolis, Minn., USA).
(§4) To further examine the ability of the Swedish mutant APP BACE1 binding peptide/Tat fusion peptides to decrease Aβ production, CHO cells overexpressing either human wild-type APP (CHO/APPwt cells) or Swedish mutant APP (hereinafter referred to as “CHO/APPswe cells”) are treated with a variety of APP-based BACE1 inhibitor peptides, as shown in Table 1 and Table 2. Aβ production is determined using ELISA.

[2] = system: CHO cells over-expressing human wild-type APP (CHO/APPwt); assay: Aβ and sAPPα production in cultured media of CHO/APPwt cells by ELISA (24 hours); format: cell-based, Chinese hamster; settings: 20 μg/mL
Experimental: as §1
as §2, with “In order to determine the inhibitory effects of TAT-APPsweBBP on BACE1-mediated APP β-cleavage and subsequent Aβ production, both CHO/APPwt and CHO/APPswe cells were plated in 24 well-plates (3×10^5/well) and treated with TAT-APPsweBBP at 0-20 μM for 24 hours.” left out
as §3, §4

[3] = system: CHO/APPwt cells; assay: Aβ production in CHO/APPwt cells by ELISA (Example 1, 4 hours); format: cell-based, Chinese hamster; settings: 20 μg/mL
Experimental: To examine the effects of various Swedish Tat fusion peptides on Aβ production, human wild-type amyloid precursor protein (APP) is overexpressed in Chinese hamster ovary cells (hereinafter referred to as CHO/APPwt cells), and the cells are treated with either PBS control (Phosphate buffered saline); Swedish peptide-1 (SwePep-1), […] (also referred herein as “APPsweBBP1”) (SEQ ID NO: 5); Swedish peptide-2 (SwePep-2) (also referred herein as “APPsweBBP”), […] (SEQ ID NO: 1); Swedish Tat fusion peptide-1 (SweTatPep-1), […] (also referred herein as “APPsweBBP/TTD1”) (SEQ ID NO: 6); or Swedish Tat fusion peptide-2 (SweTatPep-2) (also referred herein as “APPsweBBP/TTD2” and “TAT-APPsweBBP”), […] (SEQ ID NO: 3). APPsweBBP is a truncated fragment of APPswe spanning 12 amino acid residues (Glu665-Arg676). TAT, an 11-amino acid-residue protein-transduction domain derived from the HIV-1 transactivator of transcription protein, was conjugated at the C-terminus of APPsweBBP and biotin was conjugated at the N-terminus.
Following treatment, Aβ production is determined utilizing ELISA and the results illustrated in FIG. 1A. SweTatPep-2, SwePep-2, SwePep-1 and SweTatPep-1 each reduce Aβ40,42 by 63-65%, 30-33%, 31-34% and 37-38%, respectively.

[4] = molecular target: BACE1 (Homo sapiens, UniProt P56817); assay: BACE1 activity assay (FRET, cell-free); format: biochemical; design: purchased Pan Vera Co., Madison, Wis., USA; settings: peptide final concentration 20 μM, 90 minutes, room temperature
Chain of BACE1 (P56817 46-501): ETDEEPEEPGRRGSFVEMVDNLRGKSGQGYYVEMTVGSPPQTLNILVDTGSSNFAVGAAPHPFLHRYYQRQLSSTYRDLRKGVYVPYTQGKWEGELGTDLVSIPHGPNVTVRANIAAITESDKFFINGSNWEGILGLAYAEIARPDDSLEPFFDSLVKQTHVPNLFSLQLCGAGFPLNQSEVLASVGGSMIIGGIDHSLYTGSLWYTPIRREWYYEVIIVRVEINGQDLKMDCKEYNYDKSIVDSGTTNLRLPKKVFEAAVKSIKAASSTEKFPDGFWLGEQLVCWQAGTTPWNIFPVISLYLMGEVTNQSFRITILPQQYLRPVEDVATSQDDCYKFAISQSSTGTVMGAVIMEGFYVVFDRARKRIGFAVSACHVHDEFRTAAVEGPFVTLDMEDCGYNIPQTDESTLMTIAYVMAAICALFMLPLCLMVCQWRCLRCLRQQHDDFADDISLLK
Experimental: BACE1 Activity Assay—The BACE1 inhibiting activity of APP-based BACE1 site binding peptides were determined using a fluorescence resonance energy transfer (FRET) assay (Pan Vera Co., Madison, Wis., USA), which employs a recombinant baculovirus-expressed BACE1 and a specific substrate (Rh-[…]-quencher) that is based on the APPswe mutation. This specific peptide substrate becomes highly fluorescent upon enzymatic cleavage. A mixture of 10 μL of BACE1 (1.0 U/mL in 50 mM Tris, pH7.5, 10% glycerol), 10 μL of FRET-substrate, and 10 μL of the various APP-based BACE1 site binding peptides (final concentration 20 μM) were incubated for 90 minutes in the dark at room temperature. Then, 10 μL of BACE1 stop buffer (2.5 M sodium acetate) was added to the mixture. Fluorescence was read using a fluorometer, with excitation at 545 nm and emission at 585 nm.
As a required enzyme for the generation of neurotoxic Aβ from APP, BACE1 is well established as an important mediator of AD β-amyloid pathology. As such, it has become an important target for new disease modifying therapeutics. However, since BACE1 also has important physiological roles, abolishment of the enzyme or its activity may lead to deleterious side effects as evidenced by numerous failed clinical trials discussed previously. […] Since previous studies have established a close relationship between α-helix structure and peptide-protein (or protein-protein) interactions (Azzarito, 2013; Rao et al., 2013), several APP based peptides were synthesized that might serve as a preferable substrate for BACE1. Importantly, these peptides were free of the Aβ-containing segment and, thus, cannot be amyloidogenic. In theory, these could be used to “hijack” the BACE1 processing of endogenous APP and lead to a decrease in cerebral Aβ. These BACE1 substrates and controls were incubated with recombinant BACE1 and percent of inhibition of the enzyme was calculated. […] These findings indicate that the α-helical TAT fusion domain may help to promote selective APPsweBBP proteolysis by BACE1, yielding substrate competition against human wild-type APP.

Sequence	Secreted Aβ40 (ng/mg; mean ± SD) [1] [ng/mg]	Secreted Aβ42 (ng/mg; mean ± SD) [1] [ng/mg]	Secreted sAPPα (ng/mg; mean ± SD) [1] [ng/mg]	Secreted Aβ40 (ng/mg; mean ± SD) [2] [ng/mg]	Secreted Aβ42 (ng/mg; mean ± SD) [2] [ng/mg]	Secreted sAPPα (ng/mg; mean ± SD) [2] [ng/mg]	reduction of Aβ40,42 [3]	% of inhibition (mean ± SD) of BACE1 [4] [%]	% of inhibition (mean ± SD) of BACE1 ([4]; 20 µM)
IKTEEISEVNLDAEFR (listed as Homo sapiens) [APPsweBBP1]	57.23 ± 11.65	9.01 ± 1.07	211.43 ± 18.31	9.67 ± 0.84	1.07 ± 0.054	4711.83 ± 201.45	31-34%		
EVKMDAEFR (listed as Homo sapiens) [APPwtBBP3]	61.36 ± 8.34	10.93 ± 1.98	199.83 ± 14.65	11.43 ± 1.01	1.09 ± 0.061	4699.78 ± 178.43		4.89 ± 0.06	
YGRKKRRQRRREVNLDAEFR (human-virus fusion) [APPsweBBP/TTD3]	41.87 ± 5.76	8.43 ± 0.95	211.37 ± 18.93	8.74 ± 0.55	0.93 ± 0.048	5001.45 ± 271.34			
IKTEEISEVKMDAEFR (listed as Homo sapiens) [APPwtBBP1]	62.43 ± 9.43	8.91 ± 0.83	217.35 ± 17.32	11.23 ± 0.89	1.23 ± 0.043	4874.42 ± 174.56			
EISEVNLDAEFR (listed as Homo sapiens) [APPsweBBP2]	41.41 ± 8.43	6.54 ± 0.85	253.56 ± 20.11	7.01 ± 1.02	0.73 ± 0.034	5201.64 ± 119.63	30-33%		~40% and 38.43%
EISEVKMDAEFR (listed as Homo sapiens) [APPwtBBP]	59.84 ± 11.23	9.78 ± 1.07	201.65 ± 11.54	10.89 ± 0.76	1.18 ± 0.051	4762.21 ± 164.89		16.23	
